Measured values taken from patent EP4473961A1, “ORAL SOLID PHARMACEUTICAL FORMULATION COMPRISING METHADONE/LEVOMETHADONE AND OPTIONALLY NALOXONE” (L. MOLTENI & C. DEI FRATELLI ALITTI SOCIETA' DI ESERCIZIO …, priority 2023, dated 2024).

System: crisis of withdrawal from morphine
Details: rat, in vivo

CCC(=O)C(CC(C)N(C)C)(c1ccccc1)c1ccccc1 (centres unmarked) [methadone]
effect on withdrawal symptoms: significantly reduced the symptoms | values of the scores relative to the group treated with morphine alone: about 50%
